Usually IC50 stands for the concentration that inhibits the measured activity by half. Read a low IC50 as greater potency.

This experiment has as its system HIV. The experiment in a line: Table 1 IC50 of the examples (assay method not given; patent concerns inhibiting HIV replication). Format: cell-based. Conditions: Human immunodeficiency virus 1.
Regarding `Cc1cc2c(c(-c3cc(F)c4c(c3C)CCCO4)c1[C@H](OC(C)(C)C)C(=O)O)CCN2C(=O)c1ccc2c(c1)CCC2` (atropisomer, axis not shown) [Example 122, (S)-2-(tert-Butoxy)-2-((R)-1-(2,3-dihydro-1H-indene-5-carbonyl)-4-(8-fluoro-5-methylchroman-6-yl)-6-methylindolin-5-yl)acetic acid], the midpoint of inhibition, the IC50, lay at 17 nM.
In the case of `COc1cc(C(=O)N2CCc3c2cc(C)c([C@H](OC(C)(C)C)C(=O)O)c3-c2cc(F)c3c(c2C)CCCO3)ccc1Cl` (atropisomer, axis not shown) [Example 123, (S)-2-(tert-Butoxy)-2-((R)-1-(4-chloro-3-methoxybenzoyl)-4-(8-fluoro-5-methylchroman-6-yl)-6-methylindolin-5-yl)acetic acid] it was 3 nM; in that of `COc1ccc(C(=O)N2CCc3c2cc(C)c([C@H](OC(C)(C)C)C(=O)O)c3-c2cc(F)c3c(c2C)CCCO3)cc1Cl` (atropisomer, axis not shown) [Example 124, (S)-2-(tert-Butoxy)-2-((R)-1-(3-chloro-4-methoxybenzoyl)-4-(8-fluoro-5-methylchroman-6-yl)-6-methylindolin-5-yl)acetic acid], 3 nM.
In turn, `Cc1cc2c(c(-c3cc(F)c4c(c3C)CCCO4)c1[C@H](OC(C)(C)C)C(=O)O)CCN2C(=O)c1ccccc1C(F)(F)F` (atropisomer, axis not shown) [Example 125, (S)-2-(tert-Butoxy)-2-((R)-4-(8-fluoro-5-methylchroman-6-yl)-6-methyl-1-(2-(trifluoromethyl)benzoyl)indolin-5-yl)acetic acid] returned an IC50 of 5 nM.
In the case of `COc1ccc(C(=O)N2CCc3c2cc(C)c([C@H](OC(C)(C)C)C(=O)O)c3-c2cc(F)c3c(c2C)CCCO3)c(OC)c1OC` (atropisomer, axis not shown) [Example 126, (S)-2-(tert-Butoxy)-2-((R)-4-(8-fluoro-5-methylchroman-6-yl)-6-methyl-1-(2,3,4-trimethoxybenzoyl)indolin-5-yl)acetic acid] it was 5 nM.
In the case of `Cc1cc2c(c(-c3cc(F)c4c(c3C)CCCO4)c1[C@H](OC(C)(C)C)C(=O)O)CCN2C(=O)c1ccc2c(c1)CCO2` (atropisomer, axis not shown) [Example 127, (S)-2-(tert-Butoxy)-2-((R)-1-(2,3-dihydrobenzofuran-5-carbonyl)-4-(8-fluoro-5-methylchroman-6-yl)-6-methylindolin-5-yl)acetic acid] it was 2 nM.
In the case of `COc1ccc(C(=O)N2CCc3c2cc(C)c([C@H](OC(C)(C)C)C(=O)O)c3-c2cc(F)c3c(c2C)CCCO3)c(Cl)c1` (atropisomer, axis not shown) [Example 128, (S)-2-(tert-Butoxy)-2-((R)-1-(2-chloro-4-methoxybenzoyl)-4-(8-fluoro-5-methylchroman-6-yl)-6-methylindolin-5-yl)acetic acid] it was 5 nM.
For the compound `Cc1cc2c(c(-c3cc(F)c4c(c3C)CCCO4)c1[C@H](OC(C)(C)C)C(=O)O)CCN2C(=O)c1cc2ccccc2[nH]1` (atropisomer, axis not shown) [Example 129, (S)-2-(tert-Butoxy)-2-((R)-4-(8-fluoro-5-methylchroman-6-yl)-1-(1H-indole-2-carbonyl)-6-methylindolin-5-yl)acetic acid], the IC50 was 22 nM.
In the case of `Cc1cc2c(c(-c3cc(F)c4c(c3C)CCCO4)c1[C@H](OC(C)(C)C)C(=O)O)CCN2C(=O)C1=CCCCC1` (atropisomer, axis not shown) [Example 130, (S)-2-(tert-Butoxy)-2-((R)-1-(cyclohex-1-ene-1-carbonyl)-4-(8-fluoro-5-methylchroman-6-yl)-6-methylindolin-5-yl)acetic acid] it was 4 nM; in that of `Cc1cc2c(c(-c3cc(F)c4c(c3C)CCCO4)c1[C@H](OC(C)(C)C)C(=O)O)CCN2C(=O)c1ccco1` (atropisomer, axis not shown) [Example 131, (S)-2-(tert-Butoxy)-2-((R)-4-(8-fluoro-5-methylchroman-6-yl)-1-(furan-2-carbonyl)-6-methylindolin-5-yl)acetic acid], 110 nM.
In the case of `Cc1cc2c(c(-c3cc(F)c4c(c3C)CCCO4)c1[C@H](OC(C)(C)C)C(=O)O)CCN2C(=O)C1CC1` (atropisomer, axis not shown) [Example 132, (S)-2-(tert-Butoxy)-2-((R)-1-(cyclopropanecarbonyl)-4-(8-fluoro-5-methylchroman-6-yl)-6-methylindolin-5-yl)acetic acid] it was 414 nM; in that of `Cc1cc2c(c(-c3cc(F)c4c(c3C)CCCO4)c1[C@H](OC(C)(C)C)C(=O)O)CCN2C(=O)c1cc(C(F)(F)F)cc(C(F)(F)F)c1` (atropisomer, axis not shown) [Example 133, (S)-2-((R)-1-(3,5-Bis(trifluoromethyl)benzoyl)-4-(8-fluoro-5-methylchroman-6-yl)-6-methylindolin-5-yl)-2-(tert-butoxy)acetic acid], 67 nM; in that of `Cc1cccc(C(=O)N2CCc3c2cc(C)c([C@H](OC(C)(C)C)C(=O)O)c3-c2cc(F)c3c(c2C)CCCO3)c1Cl` (atropisomer, axis not shown) [Example 135, (S)-2-(tert-Butoxy)-2-((R)-1-(2-chloro-3-methylbenzoyl)-4-(8-fluoro-5-methylchroman-6-yl)-6-methylindolin-5-yl)acetic acid], 4 nM.
In the case of `Cc1cc2c(c(-c3cc(F)c4c(c3C)CCCO4)c1[C@H](OC(C)(C)C)C(=O)O)CCN2C(=O)c1ccc(C(F)(F)F)cc1F` (atropisomer, axis not shown) [Example 136, (S)-2-(tert-Butoxy)-2-((R)-1-(2-fluoro-4-(trifluoromethyl)benzoyl)-4-(8-fluoro-5-methylchroman-6-yl)-6-methylindolin-5-yl)acetic acid] it was 41 nM; in that of `Cc1ccc(C(=O)N2CCc3c2cc(C)c([C@H](OC(C)(C)C)C(=O)O)c3-c2cc(F)c3c(c2C)CCCO3)c(Cl)c1` (atropisomer, axis not shown) [Example 137, (S)-2-(tert-Butoxy)-2-((R)-1-(2-chloro-4-methylbenzoyl)-4-(8-fluoro-5-methylchroman-6-yl)-6-methylindolin-5-yl)acetic acid], 4 nM; in that of `Cc1cc2c(c(-c3cc(F)c4c(c3C)CCCO4)c1[C@H](OC(C)(C)C)C(=O)O)CCN2C(=O)c1ccc(Cl)cc1F` (atropisomer, axis not shown) [Example 138, (S)-2-(tert-Butoxy)-2-((R)-1-(4-chloro-2-fluorobenzoyl)-4-(8-fluoro-5-methylchroman-6-yl)-6-methylindolin-5-yl)acetic acid], 5 nM.
Regarding `Cc1ccc(C(=O)N2CCc3c2cc(C)c([C@H](OC(C)(C)C)C(=O)O)c3-c2cc(F)c3c(c2C)CCCO3)c(F)c1` (atropisomer, axis not shown) [Example 139, (S)-2-(tert-Butoxy)-2-((R)-1-(2-fluoro-4-methylbenzoyl)-4-(8-fluoro-5-methylchroman-6-yl)-6-methylindolin-5-yl)acetic acid], the IC50 was 6 nM.
